Experimental data: the supplement of paper PMC10307832

Tests used:
Experiment in all cases: relative viability (nuclei count vs DMSO), 5 days (fraction); higher = more cells survive
Staurosporine = compound: CN[C@@H]1C[C@H]2O[C@@](C)([C@@H]1OC)n1c3ccccc3c3c4c(c5c6ccccc6n2c5c31)C(=O)NC4 [Staurosporine]
Procedure, shortened: (§1)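 Nuclei counted with MetaXpress define viability as the ratio of treated to vehicle wells, given as a median across plates. The lung cancer cell lines were in 1536-well plates, pinned with five √10-spaced library-drug doses and imaged at 4× after 5 days and Hoechst staining. Plates passed with control CV below 25% and at least one doubling.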

Sulindac = compound: CC1=C(CC(=O)O)c2cc(F)ccc2/C1=C\c1ccc([S+](C)[O-])cc1 [Sulindac]
Procedure, shortened: as §1

5-Fluorouracil = compound: O=c1[nH]cc(F)c(=O)[nH]1 [5-Fluorouracil]
Procedure, shortened: as §1

Sulindac + Foretinib = compound: CC1=C(CC(=O)O)c2cc(F)ccc2/C1=C\c1ccc([S+](C)[O-])cc1 [Sulindac] + COc1cc2c(Oc3ccc(NC(=O)C4(C(=O)Nc5ccc(F)cc5)CC4)cc3F)ccnc2cc1OCCCN1CCOCC1 [Foretinib] (partner 0.25 µM)
Procedure, shortened: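 A single step with final 0.05% Triton X-100, 1% formaldehyde and 1 ug/ml Hoechst fixed the cells and stained nuclei 5 days after treatment. Lung cancer cell lines in 1536-well plates had been treated by pin tool the day after seeding with one drug alone or a fixed anchor-drug dose plus five library-drug doses (not always all listed) in √10 steps, and nuclei were counted on 4× images. Relative viability is the ratio of nuclei in treated wells to nuclei in vehicle wells, taken as the median of duplicate plates.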

| Cell Line | relative viability (Staurosporine; 0.005 µM) | relative viability (Staurosporine; 0.01581 µM) | relative viability (Staurosporine; 0.05 µM) | relative viability (Staurosporine; 0.1581 µM) | relative viability (Staurosporine; 0.5 µM) | relative viability (Sulindac; 0.08 µM) | relative viability (Sulindac; 0.253 µM) | relative viability (Sulindac; 0.8 µM) | relative viability (Sulindac; 2.53 µM) | relative viability (Sulindac; 8 µM) | relative viability (5-Fluorouracil; 0.02 µM) | relative viability (5-Fluorouracil; 0.2 µM) | relative viability (5-Fluorouracil; 0.6325 µM) | relative viability (5-Fluorouracil; 2 µM) | relative viability (Sulindac + Foretinib; first compound 0.08 µM) | relative viability (Sulindac + Foretinib; first compound 0.253 µM) | relative viability (Sulindac + Foretinib; first compound 0.8 µM) | relative viability (Sulindac + Foretinib; first compound 2.53 µM) | relative viability (Sulindac + Foretinib; first compound 8 µM) |
| --- | --- | --- | --- | --- | --- | --- | --- | --- | --- | --- | --- | --- | --- | --- | --- | --- | --- | --- | --- |
| NCI-H1648 | 0.807 | 0.281 | 0.244 | 0.324 | 0.274 | 0.953 | 0.793 | 0.561 | 0.923 | 0.942 | 0.922 | 0.871 | 0.56 | 0.354 | – | – | – | – | – |
| NCI-H1623 | 1.14 | 1.12 | 1.08 | 0.932 | 0.519 | 0.896 | 0.963 | 0.936 | 0.961 | 1 | 0.581 | 0.355 | 0.283 | 0.267 | 0.875 | 0.779 | 0.637 | 0.873 | 0.923 |
| NCI-H1666 | 0.7 | 0.68 | 0.557 | 0.484 | 0.373 | 0.906 | 0.978 | 0.886 | 0.982 | 1.08 | 1.04 | 0.683 | 0.503 | 0.479 | 1.01 | 1.02 | 0.908 | 0.975 | 1.13 |
| NCI-H2087 | 0.927 | 0.561 | 0.243 | 0.0918 | 0.0911 | 1.05 | 1.13 | 0.954 | 1.05 | 1.28 | 0.992 | 1.02 | 0.688 | 0.571 | 1.44 | 1.1 | – | 1.22 | 1.29 |
| NCI-H596 | – | 0.54 | 0.792 | 0.204 | 0.151 | 0.975 | 1.03 | 0.846 | 1.02 | 1.04 | 1.01 | 0.981 | 0.718 | 0.439 | 0.796 | 1.05 | 0.928 | 0.97 | 0.892 |
| Calu-6 | 0.912 | 0.553 | 0.41 | 0.126 | 0.0704 | 1.11 | 1.03 | 0.835 | 1.04 | 1.22 | 1.07 | 1.04 | 0.872 | 0.508 | 1.02 | 0.916 | 0.846 | 0.893 | 1.08 |
| LCLC-103H | 0.973 | 0.336 | 0.393 | 0.233 | 0.234 | 1.08 | 1.09 | 0.902 | 0.955 | 1.06 | 1.05 | 0.976 | 0.889 | 0.577 | 0.817 | 0.822 | 0.681 | 0.734 | 0.916 |
| HCC-15 | 0.92 | – | 0.636 | 0.137 | 0.119 | 1.14 | 1.07 | 0.843 | 0.986 | 1.13 | 1.04 | 1.11 | 0.711 | 0.413 | 1.19 | 1.02 | 0.905 | 0.978 | 1.33 |
| H3255 | 0.596 | 0.432 | 0.363 | 0.267 | 0.145 | 0.943 | 0.968 | 0.884 | 1 | 1.1 | 0.901 | 1.09 | 0.89 | 0.712 | 0.962 | 0.853 | 0.678 | 0.879 | 0.827 |
| NCI-H1915 | 0.944 | 0.119 | 0.406 | 0.18 | 0.118 | 1.13 | 1.09 | 0.878 | 0.965 | 1.03 | 0.818 | 0.986 | 0.956 | 0.779 | 1.26 | 1.2 | – | 1.11 | 1.15 |
| NCI-H1563 | 0.724 | 0.592 | 0.542 | 0.547 | – | 0.898 | 0.973 | 0.936 | 0.967 | 1.14 | 0.952 | 1.01 | 1 | 0.815 | 0.98 | 1.02 | 0.912 | 0.89 | 0.99 |
| NCI-H650 | 0.63 | 0.321 | 0.236 | 0.229 | 0.252 | 1.1 | 1.04 | 0.91 | 0.849 | 1.27 | 0.904 | 0.648 | 0.411 | 0.381 | 0.926 | 1 | 0.997 | 0.994 | 1.19 |
| NCI-H2126 | 0.875 | 0.397 | 0.582 | 0.391 | 0.303 | 0.975 | 1.01 | 0.842 | 1.03 | 1.05 | 0.915 | 0.532 | 0.356 | 0.351 | 1.2 | 1.18 | 1.06 | 1.01 | 1.14 |
| NCI-H838 | 0.447 | 0.315 | 0.221 | 0.189 | 0.126 | 1.05 | 1.04 | 0.879 | 0.94 | 1.07 | 0.879 | 1.03 | 0.597 | 0.387 | 1.05 | 1.19 | 1.03 | 1.06 | 1.22 |
| NCI-H2342 | 1.09 | 0.652 | 0.525 | 0.461 | 0.36 | 0.912 | 0.946 | 0.843 | 0.99 | 0.99 | 0.955 | 1.02 | 0.894 | 0.783 | 0.86 | 0.952 | 1.02 | 0.948 | 1.07 |
| EMC-BAC-2 | 0.437 | 0.213 | 0.222 | 0.21 | 0.259 | 1.09 | 0.976 | 0.869 | 0.968 | 1.19 | 1.07 | 1.06 | 1.03 | 0.924 | 0.953 | 1.05 | 0.892 | 1.02 | 1.08 |
| HCC-44 | 1.01 | 0.384 | 0.404 | 0.228 | 0.14 | 0.986 | 1.01 | 1.02 | 0.935 | 1.04 | 1.05 | 0.941 | 0.55 | 0.349 | – | – | – | – | – |
| NCI-H1792 | 0.536 | 0.251 | 0.235 | 0.173 | 0.177 | 1.19 | 1.08 | – | 1.07 | 1.09 | 0.975 | 0.851 | 0.278 | 0.344 | – | – | – | – | – |
